# Experimental data reported in patent publication US9260504B2, “N- and C-terminal substituted antagonistic analogs of GH-RH” (University of Miami, priority 2008, dated 2016).
# Marks after values point to notes of the source that are not given here.
# Columns and labels:
# Assay type in all cases: in vivo
# [1] = test system: MDA-MB-231 human estrogen independent breast cancer; experiment: MDA-MB-231 human estrogen independent breast cancer xenografts in nude mice; conditions: 5 μg/day s.c., 28 days
# Description: Female nude mice were xenografted s.c. with MDA-MB-231 tumor tissue from donor animals. When tumors had grown to a mean volume of approximately 50 mm^3, the mice were randomly assigned into 2 experimental groups with 10 animals in each group and received single daily injections for 28 days as follows: 1. Control (vehicle solution); 2. Peptide 1109 (5 μg/day s.c.). Tumor volumes were measured once a week. The experiment was ended on day 28 by sacrificing the mice under Isoflurane anesthesia. Resulting tumors were cleaned, weighed, and snap-frozen until further analyses. Statistical analyses of the measurement results were done by two-tailed t-test, p<0.05 being considered significant.
# [2] = test system: NCI-N87 human gastric cancer; experiment: NCI-N87 human gastric cancer xenografts in nude mice; conditions: 10 μg/day s.c.
# Description: NCI-N87 cancers were transplanted s.c. into both flank areas of 30 female nude mice. The mice were randomly assigned into 4 experimental groups with 6 to 9 animals in each group and received single daily injections for 77 days as follows: 1. Control (vehicle solution); 2. JMR-132 (10 μg/day s.c.); 3. Peptide 1109 (10 μg/day s.c.); 4. Peptide 11479 (10 μg/day s.c.). Tumor volumes were measured once a week. The experiment was ended on day 77 by sacrificing the mice under Isoflurane anesthesia. Resulting tumors were cleaned, weighed, and snap-frozen until further analyses. Statistical analyses of the measurement results were done by two-tailed t-test, p<0.05 being considered significant. Data are presented as the means±S.E.
# [3] = test system: SK-Hep-1 human hepatocellular cancer; experiment: SK-Hep-1 human hepatocellular cancer xenografts in nude mice; conditions: for Tumor volume (mm^3) on day 135: means±S.E.; for Tumor weights (mg): tumors removed at autopsy
# Description: SK-Hep-1 cancers were transplanted s.c. into both flank areas of 66 female nude mice, and allowed to grow for 47 days before starting the treatment with GH-RH antagonists. The mice were randomly assigned into 4 experimental groups with 8 animals in each group and received single daily injections for 135 days as follows: 1. Control (vehicle solution); 2. JMR-132 (10 μg/day s.c.); 3. Peptide 1109 (5 μg/day s.c.); 4. Peptide 1109 (10 μg/day s.c.). Tumor volumes were measured once a week. The experiment was ended on day 135 by sacrificing the mice under Isoflurane anesthesia. Resulting tumors were cleaned, weighed, and snap-frozen until further analyses. Statistical analyses of the measurement results were done by two-tailed t-test, p<0.05 being considered significant. Data are presented as the means±S.E.
# [4] = test system: H-460 human non-small cell lung cancer; experiment: H-460 human non-SCLC xenografts in nude mice, Experiment 1; conditions: 10 μg/day s.c., 28 days; means±S.E.
# Description: Male nude mice were implanted s.c. with 3 mm^3 pieces of H-460 human non-SCLC tumor tissue on both flanks. When tumors had grown to a mean volume of approximately 90 mm^3, the mice were randomly assigned into 4 experimental groups with 10 animals in each group and received single daily injections for 28 days as follows: 1. Control (vehicle solution); 2. JMR-132 (10 μg/day s.c.); 3. Peptide 1109 (10 μg/day s.c.); 4. Peptide 11111 (10 μg/day s.c.). Tumor volumes were measured once a week. The experiment was ended on day 28 by sacrificing the mice under Isoflurane anesthesia. Resulting tumors were cleaned, weighed, and snap-frozen until further analyses. Statistical analyses of the measurement results were done by two-tailed t-test, p<0.05 being considered significant. Data are presented as the means±S.E.
# [5] = test system: PC-3 human hormone-independent prostate cancer; experiment: PC-3 human prostate cancer xenografts in nude mice, Experiment 2
# Description: (§1) Male nude mice were implanted s.c. with 3 mm^3 pieces of PC-3 human hormone-independent prostate cancer tissue on both flanks. When tumors reached a volume of approx. 50 mm^3, the mice were divided into 4 experimental groups with 8 to 10 animals in each group and received single daily injections for 35 days as follows: 1. Control (vehicle solution); 2. JMR-132 (10 μg/day s.c.); 3. Peptide 1109 (10 μg/day s.c.); 4. Peptide 11111 (10 μg/day s.c.); Tumor volumes were measured once a week. The experiment was ended on day 35 by sacrificing the mice under Isoflurane anesthesia. Resulting tumors were cleaned, weighed, and snap-frozen until further analyses. Statistical analyses of the measurement results were done by two-tailed t-test, p<0.05 being considered significant. Data are presented as the means±S.E.
# Experiment 2 was similar to Experiment 1. Experiment 2 was started when PC-3 tumors had grown to approximately 50 mm^3 in volume. At this time, the animals were divided into 5 experimental groups with 8 animals in each group, and received single daily injections for 14 days as follows: 1. Control (vehicle solution); 2. JMR-132 (10 μg/day s.c.); 3. Peptide 1109 (5 μg/day s.c.); 4. Peptide 11109 (5 μg/day s.c.); 5. Peptide 11109 (2 μg/day s.c.). Further details of Experiment 2 are the same as for Experiment 1
# [6] = test system: PC-3 human hormone-independent prostate cancer; experiment: PC-3 human prostate cancer xenografts in nude mice, Experiment 1; conditions: 10 μg/day s.c., daily for 35 days; means±S.E.
# Description: as §1
substance,measurement,setting,value
"[PhAc^0-Tyr^1, D-Arg^2, Cpa^6, Ala^8, Har^9, Tyr(Me)^10, His^11, Abu^15, Glu^17, His^20, Nle^27, D-Arg^28, Har^29]hGH-RH(1-29)NH2 [Peptide 1109]",Inhibition of the growth of MDA-MB-231 human breast cancers,[1],about 75%
same,Number of regressing tumors,[2]; 77 days,6
same,Tumor growth after 77 days (%),"[2]; 77 days, means±S.E.",225 ± 59 %
same,Tumor weights,"[2]; day 77, means±S.E.",170 ± 52 mg
same,Tumor doubling time,[2]; calculated without the regressing tumors,93.6 ± 30.7 days
same,Tumors with total regression,"[3]; 5 μg/day s.c., 135 days",5
same,Tumor volume (mm^3) on day 135,"[3]; 5 μg/day s.c., 135 days",271 ± 98 mm^3
same,Tumor weights (mg),[3]; 5 μg/day s.c.,565 ± 115 (6) mg
same,Inhibition of SK-Hep-1 hepatic cancer growth compared with reference peptide JMR-132,"[3]; 5 μg/day vs JMR-132 10 μg/day, 135 days",more potently inhibited the growth of SK-Hep-1 hepatic cancers than the reference peptide JMR-132
same,Tumors with total regression,"[3]; 10 μg/day s.c., 135 days",7
same,Tumor volume (mm^3) on day 135,"[3]; 10 μg/day s.c., 135 days",200 ± 123* mm^3
same,Tumor weights (mg),[3]; 10 μg/day s.c.,605 ± 281 (4) mg
same,Tumor growth after 4 weeks (%),[4],1042 ± 181%
same,Tumor growth after 2 weeks (%),"[5]; 5 μg/day s.c., 14 days",311%
same,Inhibition of PC-3 tumor growth compared with reference peptide JMR-132,"[5]; Peptide 1109 5 μg/day, Peptide 11109 5 and 2 μg/day, JMR-132 10 μg/day, 14 days",inhibited the growth of PC-3 tumors more potently than reference peptide JMR-132
same,Inhibition (%),"[5]; tumor growth after 2 weeks, 5 μg/day s.c.",56.58%
same,Tumor growth after 5 weeks (%),[6],1502 ± 405%
